The text below walks through data of patent US11759462B2, “Spirocyclic compounds as tryptophan hydroxylase inhibitors” (priority 2013, dated 2023).

Bounds are passed on as bounds.

As usually defined, the IC50 is the concentration that inhibits the measured activity by half.

For the experiment, the target named is T1, Recombinant human TPH1 (MBP tagged) (Homo sapiens, UniProt P17752).
T1 construct: cloning full length human TPH1 cDNA in to a bacterial pMAL-c5E expression vector; made in house; host or cells: E. coli BL21 (DE3)
T1 sequence (P17752 1-444): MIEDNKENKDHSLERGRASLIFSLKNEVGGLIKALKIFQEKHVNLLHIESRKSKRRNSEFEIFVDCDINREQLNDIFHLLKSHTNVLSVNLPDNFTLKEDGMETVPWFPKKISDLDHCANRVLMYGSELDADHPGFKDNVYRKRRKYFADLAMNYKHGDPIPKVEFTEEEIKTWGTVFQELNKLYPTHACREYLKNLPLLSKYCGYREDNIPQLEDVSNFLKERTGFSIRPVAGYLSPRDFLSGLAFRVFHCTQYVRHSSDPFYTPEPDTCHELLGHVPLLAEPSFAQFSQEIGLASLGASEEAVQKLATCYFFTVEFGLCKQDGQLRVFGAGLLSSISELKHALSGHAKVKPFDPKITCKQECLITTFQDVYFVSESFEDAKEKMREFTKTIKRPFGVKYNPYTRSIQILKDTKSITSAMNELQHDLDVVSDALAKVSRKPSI
The experiment in a line: TPH1 in vitro inhibition assay (kinetic fluorescence). In kind it is biochemical. The note with it: read-out: TPH1 Range (TPH1 inhibition IC50). A digest of the protocol: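 Final mix: 15 nM MBP-TPH1, 30 μM Trp, 36 μM 6-methyltetrahydropterin, 25 μM ferrous ammonium sulfate, 50 mM MES pH 7.1, 1% DMSO, room temperature.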
As for `Cc1ccn(-c2cc(-c3ccc(OCC(C)(C)C)cc3)ccc2[C@@H](Oc2cc(N3CCC4(CC3)CN[C@H](C(=O)O)C4)nc(N)n2)C(F)(F)F)n1` [Example 1cn, (S)-8-(2-amino-6-((R)-2,2,2-trifluoro-1-(3-(3-methyl-1H-pyrazol-1-yl)-4′-(neopentyloxy)-[1,1′-biphenyl]-4-yl)ethoxy)pyrimidin-4-yl)-2,8-diazaspiro[4.5]decane-3-carboxylic acid], the half-inhibitory concentration (IC50) is less than 50 nM.
In the case of `Cc1ccn(-c2cc(-c3ccc4c(c3)CCCO4)ccc2[C@@H](Oc2cc(N3CCC4(CC3)CN[C@H](C(=O)O)C4)nc(N)n2)C(F)(F)F)n1` [Example 1co, (S)-8-(2-amino-6-((R)-1-(4-(chroman-6-yl)-2-(3-methyl-1H-pyrazol-1-yl)phenyl)-2,2,2-trifluoroethoxy)pyrimidin-4-yl)-2,8-diazaspiro[4.5]decane-3-carboxylic acid], the half-maximal inhibitory concentration (IC50) is less than 50 nM.
For the molecule `Cc1ccn(-c2cc(-c3ccc(C)c(CO)c3)ccc2[C@@H](Oc2cc(N3CCC4(CC3)CN[C@H](C(=O)O)C4)nc(N)n2)C(F)(F)F)n1` [Example 1cq, (S)-8-(2-amino-6-((R)-2,2,2-trifluoro-1-(3′-(hydroxymethyl)-4′-methyl-3-(3-methyl-1H-pyrazol-1-yl)-[1,1′-biphenyl]-4-yl)ethoxy)pyrimidin-4-yl)-2,8-diazaspiro[4.5]decane-3-carboxylic acid], the IC50 was less than 50 nM.
As for `Cc1ccn(-c2cc(-c3ccc(CO)c(C)c3)ccc2[C@@H](Oc2cc(N3CCC4(CC3)CN[C@H](C(=O)O)C4)nc(N)n2)C(F)(F)F)n1` [Example 1cr, (S)-8-(2-amino-6-((R)-2,2,2-trifluoro-1-(4′-(hydroxymethyl)-3′-methyl-3-(3-methyl-1H-pyrazol-1-yl)-[1,1′-biphenyl]-4-yl)ethoxy)pyrimidin-4-yl)-2,8-diazaspiro[4.5]decane-3-carboxylic acid], the half-maximal inhibitory concentration (IC50) is less than 50 nM.
Consider `CCOc1ccc(-c2ccc([C@@H](Oc3cc(N4CCC5(CC4)CN[C@H](C(=O)O)C5)nc(N)n3)C(F)(F)F)c(-n3ccc(C)n3)c2)cn1` [Example 1cs, (S)-8-(2-amino-6-((R)-1-(4-(6-ethoxypyridin-3-yl)-2-(3-methyl-1H-pyrazol-1-yl)phenyl)-2,2,2-trifluoroethoxy)pyrimidin-4-yl)-2,8-diazaspiro[4.5]decane-3-carboxylic acid], for which the half-maximal inhibitory concentration (IC50) is less than 50 nM.
For `Cc1ccn(-c2cc(-c3cccc(C(=O)O)c3)ccc2[C@@H](Oc2cc(N3CCC4(CC3)CN[C@H](C(=O)O)C4)nc(N)n2)C(F)(F)F)n1` [Example 1d, (S)-8-(2-amino-6-((R)-1-(3′-carboxy-3-(3-methyl-1H-pyrazol-1-yl)-[1,1′-biphenyl]-4-yl)-2,2,2-trifluoroethoxy)pyrimidin-4-yl)-2,8-diazaspiro[4.5]decane-3-carboxylic acid], the IC50 was less than 50 nM.
`Cc1ccn(-c2cc(C3=CCNCC3)ccc2[C@@H](Oc2cc(N3CCC4(CC3)CN[C@H](C(=O)O)C4)nc(N)n2)C(F)(F)F)n1` [Example 1f, (S)-8-(2-amino-6-((R)-2,2,2-trifluoro-1-(2-(3-methyl-1H-pyrazol-1-yl)-4-(1,2,3,6-tetrahydropyridin-4-yl)phenyl)ethoxy)pyrimidin-4-yl)-2,8-diazaspiro[4.5]decane-3-carboxylic acid]: the IC50 fell in the range of 50 to 300 nM.
As for `Cc1ccn(-c2cc(-c3cnoc3)ccc2[C@@H](Oc2cc(N3CCC4(CC3)CN[C@H](C(=O)O)C4)nc(N)n2)C(F)(F)F)n1` [Example 1i, (S)-8-(2-amino-6-((R)-2,2,2-trifluoro-1-(4-(isoxazol-4-yl)-2-(3-methyl-1H-pyrazol-1-yl)phenyl)ethoxy)pyrimidin-4-yl)-2,8-diazaspiro[4.5]decane-3-carboxylic acid], the IC50 fell in the range of 50 to 300 nM.
For the molecule `Cc1ccn(-c2cc(C3=CCOCC3)ccc2[C@@H](Oc2cc(N3CCC4(CC3)CN[C@H](C(=O)O)C4)nc(N)n2)C(F)(F)F)n1` [Example 1j, (S)-8-(2-amino-6-((R)-1-(4-(3,6-dihydro-2H-pyran-4-yl)-2-(3-methyl-1H-pyrazol-1-yl)phenyl)-2,2,2-trifluoroethoxy)pyrimidin-4-yl)-2,8-diazaspiro[4.5]decane-3-carboxylic acid], the IC50 lay in the range of 50 to 300 nM.
Take `CC(=O)N1CC=C(c2ccc([C@@H](Oc3cc(N4CCC5(CC4)CN[C@H](C(=O)O)C5)nc(N)n3)C(F)(F)F)c(-n3ccc(C)n3)c2)CC1` [Example 1k, (S)-8-(6-((R)-1-(4-(1-acetyl-1,2,3,6-tetrahydropyridin-4-yl)-2-(3-methyl-1H-pyrazol-1-yl)phenyl)-2,2,2-trifluoroethoxy)-2-aminopyrimidin-4-yl)-2,8-diazaspiro[4.5]decane-3-carboxylic acid]: the IC50 was less than 50 nM.
Take `CCOc1ccc(-c2ccc([C@@H](Oc3cc(N4CCC5(CC4)CN[C@H](C(=O)O)C5)nc(N)n3)C(F)(F)F)c(-n3ccc(C)n3)c2)cc1` [Example 1q, (S)-8-(2-amino-6-((R)-1-(4′-ethoxy-3-(3-methyl-1H-pyrazol-1-yl)-[1,1′-biphenyl]-4-yl)-2,2,2-trifluoroethoxy)pyrimidin-4-yl)-2,8-diazaspiro[4.5]decane-3-carboxylic acid]: the IC50 was less than 50 nM.
As to `COc1ncc(-c2ccc([C@@H](Oc3cc(N4CCC5(CC4)CN[C@H](C(=O)O)C5)nc(N)n3)C(F)(F)F)c(-n3ccc(C)n3)c2)cn1` [Example 1r, (S)-8-(2-amino-6-((R)-2,2,2-trifluoro-1-(4-(2-methoxypyrimidin-5-yl)-2-(3-methyl-1H-pyrazol-1-yl)phenyl)ethoxy)pyrimidin-4-yl)-2,8-diazaspiro[4.5]decane-3-carboxylic acid], the IC50 is less than 50 nM.
With `COc1ccc(-c2ccc([C@@H](Oc3cc(N4CCC5(CC4)CN[C@H](C(=O)O)C5)nc(N)n3)C(F)(F)F)c(-n3ccc(C)n3)c2)cn1` [Example 1s, (S)-8-(2-amino-6-((R)-2,2,2-trifluoro-1-(4-(6-methoxypyridin-3-yl)-2-(3-methyl-1H-pyrazol-1-yl)phenyl)ethoxy)pyrimidin-4-yl)-2,8-diazaspiro[4.5]decane-3-carboxylic acid], the IC50 is less than 50 nM.
For the molecule `Cc1ccn(-c2cc(-c3ccccc3)ccc2[C@@H](Oc2cc(N3CCC4(CC3)CN[C@H](C(=O)O)C4)nc(N)n2)C(F)(F)F)n1` [Example 1u, (S)-8-(2-amino-6-((R)-2,2,2-trifluoro-1-(3-(3-methyl-H-pyrazol-1-yl)-[1,1′-biphenyl]-4-yl)ethoxy)pyrimidin-4-yl)-2,8-diazaspiro[4.5]decane-3-carboxylic acid], the concentration for half-maximal inhibition (IC50) was less than 50 nM.
Take `Cc1ccn(-c2cc(-c3cccc(C#N)c3)ccc2[C@@H](Oc2cc(N3CCC4(CC3)CN[C@H](C(=O)O)C4)nc(N)n2)C(F)(F)F)n1` [Example 1w, (S)-8-(2-amino-6-((R)-1-(3′-cyano-3-(3-methyl-1H-pyrazol-1-yl)-[1,1′-biphenyl]-4-yl)-2,2,2-trifluoroethoxy)pyrimidin-4-yl)-2,8-diazaspiro[4.5]decane-3-carboxylic acid]: the IC50 is less than 50 nM.
In the case of `CC(=O)NCc1ccc(-c2ccc([C@@H](Oc3cc(N4CCC5(CC4)CN[C@H](C(=O)O)C5)nc(N)n3)C(F)(F)F)c(-n3ccc(C)n3)c2)cc1` [Example 1x, (S)-8-(6-((R)-1-(4′-(acetamidomethyl)-3-(3-methyl-1H-pyrazol-1-yl)-[1,1′-biphenyl]-4-yl)-2,2,2-trifluoroethoxy)-2-aminopyrimidin-4-yl)-2,8-diazaspiro[4.5]decane-3-carboxylic acid], the IC50 was less than 50 nM.
Turning to `Cc1ccn(-c2cc(-c3ccc4cccnc4c3)ccc2[C@@H](Oc2cc(N3CCC4(CC3)CN[C@H](C(=O)O)C4)nc(N)n2)C(F)(F)F)n1` [Example 1z, (S)-8-(2-amino-6-((R)-2,2,2-trifluoro-1-(2-(3-methyl-1H-pyrazol-1-yl)-4-(quinolin-7-yl)phenyl)ethoxy)pyrimidin-4-yl)-2,8-diazaspiro[4.5]decane-3-carboxylic acid], the IC50 was less than 50 nM.
On to `COc1ccc([C@@H](Oc2cc(N3CCC4(CC3)CN[C@H](C(=O)O)C4)nc(N)n2)C(F)(F)F)c(-n2ccc(C)n2)c1` [Example 10l, (S)-8-(2-amino-6-((R)-2,2,2-trifluoro-1-(4-methoxy-2-(3-methyl-1H-pyrazol-1-yl)phenyl)ethoxy)pyrimidin-4-yl)-2,8-diazaspiro[4.5]decane-3-carboxylic acid], for which the concentration for half-maximal inhibition (IC50) lay within 50 to 300 nM.
With `Cc1ccn(-c2cc(Br)ccc2[C@@H](Oc2cc(N3CCC4(CC3)CN[C@H](C(=O)O)C4)nc(N)n2)C(F)(F)F)n1` [Example 10m, (S)-8-(2-amino-6-((R)-1-(4-bromo-2-(3-methyl-1H-pyrazol-1-yl)phenyl)-2,2,2-trifluoroethoxy)pyrimidin-4-yl)-2,8-diazaspiro[4.5]decane-3-carboxylic acid], the IC50 was less than 50 nM.
For the molecule `Cc1ccn(-c2ccc(Br)cc2[C@@H](Oc2cc(N3CCC4(CC3)CN[C@H](C(=O)O)C4)nc(N)n2)C(F)(F)F)n1` [Example 10n, (S)-8-(2-amino-6-((R)-1-(5-bromo-2-(3-methyl-1H-pyrazol-1-yl)phenyl)-2,2,2-trifluoroethoxy)pyrimidin-4-yl)-2,8-diazaspiro[4.5]decane-3-carboxylic acid], the 50% inhibitory concentration (IC50) was less than 50 nM.
